Measured values taken from patent publication US9290476B2, “Methylene linked quinolinyl modulators of RORγt” (Janssen Pharmaceutica NV, priority 2012, dated 2016).
Where a name gives a salt, the structure may show the parent alone. Read-outs that look alike come from different tables or passages of the source.

Columns and labels:
[1] = target: human RORγt ligand binding domain (RORγt LBD) (Homo sapiens (Human), UniProt P51449); assay: RORγt ThermoFluor assay (thermal shift binding affinity); details: estimated from thermal shift
In short: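 Thermal shift used 0.065 mg/mL RORγt LBD with 60 μM 1,8-ANS in 100 mM Hepes pH 7.0, 10 mM NaCl, 2.5 mM GSH and 0.002% Tween-20, heated at 1 °C/min. Fluorescence was excited at 380–400 nm and emission read at 500 nm.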

human RORγt LBD = human RORγt LBD (Homo sapiens (Human), UniProt P51449); assay: RORγt reporter assay (GAL4-RORγt LBD luciferase in HEK293T cells); assay type: cell-based; details: for IC50 / RORγt reporter Assay, % inhibition @ 6 μM: HEK293T cells; for IC50: 24 hours compound treatment; for inhibition at 6 µM: HEK-293T, read-out: RORγt reporter Assay, % inhibition @ 6 μM, HEK293T cells, 6 μM
In short: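 HEK293T cells transiently co-transfected with GAL4-DBD–wild-type human RORγt LBD (pBIND) and GAL4-responsive firefly luciferase reporter (pGL4.31); renilla luciferase from pBIND normalises transfection/viability. Cells in phenol-red-free DMEM, 5% lipid-reduced FCS, treated with compound 24 h. Firefly/renilla ratio plotted against compound concentration.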

[2] = test system: IL-17 production by CD4 T cells; assay: Human Th17 assay (IL-17 production by CD4 T cells under Th17 differentiation); assay type: cell-based; details: human CD4+ T cells, IL-17 after 3 days, read-out: Human Th17 Assay, IC50 μM
In short: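 Healthy-donor peripheral CD4+ T cells (1.5×10^5/well) preincubated 1 h with titrated compound (0.2% DMSO), then differentiated with anti-CD3/CD28 beads, anti-IL4, anti-IFNγ, IL1β, IL23, IL6, TGFβ and IL2 for 3 days at 37 °C. Supernatant IL-17 quantified by MSD electrochemiluminescence against a standard curve; IC50 fitted.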

human RORγt ligand binding domain (RORγt LBD), sequence (P51449 other isoform, or with tags, fused parts or gaps): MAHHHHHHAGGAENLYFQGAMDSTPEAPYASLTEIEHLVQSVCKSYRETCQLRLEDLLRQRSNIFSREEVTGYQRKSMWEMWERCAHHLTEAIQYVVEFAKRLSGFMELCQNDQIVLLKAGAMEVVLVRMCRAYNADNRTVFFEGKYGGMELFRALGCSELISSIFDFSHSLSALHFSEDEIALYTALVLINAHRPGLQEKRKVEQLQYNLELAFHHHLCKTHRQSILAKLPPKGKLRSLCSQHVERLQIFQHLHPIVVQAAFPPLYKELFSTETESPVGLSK
human RORγt LBD, sequence (P51449 258-518): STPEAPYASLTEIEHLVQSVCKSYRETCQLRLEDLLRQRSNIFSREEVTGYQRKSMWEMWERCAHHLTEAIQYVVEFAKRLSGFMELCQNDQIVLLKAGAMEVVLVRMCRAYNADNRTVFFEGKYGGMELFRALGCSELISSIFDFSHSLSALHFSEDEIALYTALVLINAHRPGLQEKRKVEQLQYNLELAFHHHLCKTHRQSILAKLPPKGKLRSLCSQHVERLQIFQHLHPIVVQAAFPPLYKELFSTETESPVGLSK

SMILES	Kd [1] [nM]	IC50 (human RORγt LBD) [µM]	inhibition at 6 µM (human RORγt LBD) [%]	IC50 [2] [µM]	RORγt reporter Assay, % inhibition @ 6 μM (human RORγt LBD) [%]	IC50 ([2]; Homo sapiens, CD4+ T, 72 h) [µM]
Cn1cncc1C(O)(c1ccc(C(F)(F)F)nc1)c1ccc2nc(N3CCC3)c(Cc3ccc(-n4cccn4)cc3)c(Cl)c2c1 (single isomer, unassigned) [Example 68B, (3-(4-(1H-pyrazol-1-yl)benzyl)-2-(azetidin-1-yl)-4-chloroquinolin-6-yl)(1-methyl-1H-imidazol-5-yl)(6-(trifluoromethyl)pyridin-3-yl)methanol]	2.1	~0.05	96	0.01	–	–
COc1nc2ccc(C(O)(c3cnnn3C)c3cnc(C)n3C)cc2c(C#N)c1Cc1ccc(C(F)(F)F)cc1 (single isomer, unassigned) [Example 81C, 6-((1,2-Dimethyl-1H-imidazol-5-yl)(hydroxy)(1-methyl-1H-1,2,3-triazol-5-yl)methyl)-2-methoxy-3-(4-(trifluoromethyl)benzyl)quinoline-4-carbonitrile]	0.12	–	–	0.002	103	–
Cn1cncc1C(O)(c1ccc(C(F)(F)F)nc1)c1ccc2nc(N3CCC3)c(Cc3ccc(C(F)(F)F)cc3)c(Cl)c2c1 (single isomer, unassigned) [Example 92C, (2-(Azetidin-1-yl)-4-chloro-3-(4-(trifluoromethyl)benzyl)quinolin-6-yl)(1-methyl-1H-imidazol-5-yl)(6-(trifluoromethyl)pyridin-3-yl)methanol]	1.4	0.017	–	0.0086	97	–
Cc1cc(C(O)(c2ccc(Cl)cc2)c2cncn2C)cc2c(Cl)c(Cc3ccc(-n4cccn4)cc3)c(Cl)nc12 (centres unmarked) [Example 85, (3-(4-(1H-Pyrazol-1-yl)benzyl)-2,4-dichloro-8-methylquinolin-6-yl)(4-chlorophenyl)(1-methyl-1H-imidazol-5-yl)methanol]	85	0.29	97	–	–	0.3
Cc1ccc(C(O)(c2ccc3nc(C#N)c(Cc4ccc(C(F)(F)F)cc4)c(C#N)c3c2)c2cnnn2C)c(C)n1 (single isomer, unassigned) [Example 88C, 6-((2,6-Dimethylpyridin-3-yl)(hydroxy)(1-methyl-1H-1,2,3-triazol-5-yl)methyl)-3-(4-(trifluoromethyl)benzyl)quinoline-2,4-dicarbonitrile]	0.04	0.0088	–	–	95	0.0028
COc1nc2ccc(C(O)(c3cnc(C)n3C)c3cnc(C)n3C)cc2c(Cl)c1Cc1ccc(C(F)(F)F)cc1 [Example 93, (4-Chloro-2-methoxy-3-(4-(trifluoromethyl)benzyl)quinolin-6-yl)bis(1,2-dimethyl-1H-imidazol-5-yl)methanol]	0.017	0.16	87	–	–	0.01
CN(C)c1ccc(C(O)(c2ccc3nc(Cl)c(Cc4ccc(-n5cccn5)cc4)c(Cl)c3c2)c2cncn2C)cc1 (centres unmarked) [Example 25, (3-(4-(1H-Pyrazol-1-yl)benzyl)-2,4-dichloroquinolin-6-yl)(4-(dimethylamino)phenyl)(1-methyl-1H-imidazol-5-yl)methanol.TFA]	440	0.33	87	–	–	0.38
Cn1cncc1C(O)(c1ccc(Cl)cc1)c1ccc2nc(C#N)c(Cc3ccc(-n4cccn4)cc3)c(C#N)c2c1 (single isomer, unassigned) [Example 71B, 3-(4-(1H-Pyrazol-1-yl)benzyl)-6-((4-chlorophenyl)(hydroxy)(1-methyl-1H-imidazol-5-yl)methyl)quinoline-2,4-dicarbonitrile]	1.6	0.011	105	0.011	–	–
COc1nc2ccc(C(O)(c3ccccc3)C3CCN(C(C)=O)CC3)cc2c(Cl)c1Cc1ccc(-n2cccn2)cc1 (single isomer, unassigned) [Example 83C, 1-(4-((3-(4-(1H-Pyrazol-1-yl)benzyl)-4-chloro-2-methoxyquinolin-6-yl)(hydroxy)(phenyl)methyl)piperidin-1-yl)ethanone]	77	0.14	–	0.12	103	–
